# Legend:
# [1] = design: species or system mice; settings: mouse, in vivo
# Protocol: FIG. 11. […] Mice were gavaged with roughly molar equivalent levels of either xylitol alone (500 mg/kg in water) or erythritol alone (400 mg/kg), or both compounds (500 mg/kg xylitol and 400 mg/kg erythritol). Time-dependent changes in levels of xylitol and erythritol were quantified using LC-MS/MS in plasma (Panel A), urine (Panel B), and feces (Panel C) for the three groups of mice. At baseline, both xylitol and erythritol are present in mouse plasma at low levels (0.5-1.0 μM). […] Reported is content of xylitol and erythritol per ug of wet feces.
# Stable-isotope-dilution LC-MS/MS was developed to specifically quantify xylitol in human and mouse plasma, urine and feces (fecal pellets were dissolved in water and supernatant subjected to LC-MS/MS). Ice cold methanol (800 μL) and internal standard (^13C2-arabitol) were added to the plasma samples (20 μL) or urine (20 μL) previously diluted in MQ water, followed by vortexing and centrifuging (21,000×g; 4° C. for 15 min). The clear supernatant (800 μL) was transferred into a clean, labeled glass tubes (Borosilicate glass 12×75 mm) and dried in a speed vacuum concentrator (Speed vac plus, SC210, Thermo Sevant). Acetylation was used since xylitol is poorly ionizable in order to achieve better retention on the reverse phase column and separation from other structural isomers as well as better ionization to achieve better sensitivity. The dry residue was reconstituted in acetic anhydride (100 μL) and 4-Dimethylaminopyridine (DMAP) in pyridine (100 μl; 1 mg/mL), sealed with safety caps, vortexed and heated (45 min at 80° C.) followed with drying under nitrogen. Dried residues were dissolved in HCl in water (0.1 M; 0.5 mL) and extracted with ethylacetate (2.0 mL). Ethylacetate layer was transferred into a clean glass tube (Borosilicate glass 12×75 mm) and dried under nitrogen. The dry residue was reconstituted in ammonium formate in a mixture of methanol:water (100 μL; 50:50 v/v with 10 mM ammonium formate), tubes were vortexed and liquid was transferred to glass vials with micro-insets and caped. LC-MS/MS analysis was performed on a chromatographic system consisting of two Shimadzu LC-30 AD pumps (Nexcra X2), a CTO 20AC oven operating at 30° C., and a SIL-30 AC-MP autosampler in tandem with a triple quadruple mass spectrometer (8050 series, Shimadzu Scientific Instruments, Inc., Columbia, MD, USA). For chromatographic separation, a Kinetex C18 column (50 mm×2.1 mm; 2.6 μm) (Cat #00B-4462-AN, Phenomenex, Torrance, CA) was used. […] Accuracy and precision of the method to quantify xylitol (separated from its structural isomers arabitol and ribitol) were assessed by a standard addition method of pure synthetic standard into different plasma pools. The accuracy of xylitol measurement was determined by the method of standard additions^12 using three different plasma pools, and was 2.4-2.8%. Intra- and inter-day coefficients of variation (CVs), measured by multiple analysis of three different control samples, were 1.2-8.9% and 10.9-11.5%, respectively. Freeze/thaw stability was determined over the five cycles and it was less than 7% for xylitol. The limit of quantification (LOQ) was defined (by convention) as the level at which xylitol was measured within the matrix (plasma) with a peak having signal-to-noise-ratio of 10:1. Limit of detection (LOD) was determined to be the lowest concentration of xylitol in the sample with a signal-to-noise ratio ≥3. […]
# human whole blood = assay: Whole blood in vitro thrombosis assay (collagen-coated microfluidic chip); type: cell-based
# Protocol: Shear flow experiments of whole blood were performed with a Cellix Microfluidics System (Cellix, Dublin, Ireland) as previously described and outlined in additional methods.^41-43 The extent of platelet activation and adhesion to the collagen matrix was quantified using computer assisted tomographic analyses, as previously described.^40
# Shear flow experiments of whole blood were performed with a Cellix Microfluidics System (Cellix, Dublin, Ireland) as previously described.^6-8 Before use, the micro channels of a Vena8 Fluoro+ biochip were coated with type 1 collagen (15 μL; 50 μg/mL) and each channel of the biochip then washed with PBS using the Mirus Nanopump. Images were taken with an HC Plan Apo 20X/0.7NA lens on a Leica DMI6000 inverted microscope equipped with an environmental chamber and a Hamamatsu ImagEM cooled CCD camera. […] Images of platelets adhering to the collagen matrix were recorded every 5 s. […] The extent of platelet activation and adhesion to the collagen matrix was quantified using computer assisted tomographic analyses as previously described.^5 Briefly, images of CD42b stained platelet thrombi were quantified using Image Pro plus software (Media Cybernetics, Rockville, Maryland, USA). The intensity threshold was chosen to select for specific staining and the integrated optical density (IOD, Area×Intensity) quantified. […]
smiles,measurement,setting,value
OC[C@@H](O)[C@@H](O)CO [erythritol],baseline plasma level,[1],0.5 to 1.0 µM
same,oral absorption in mice,[1]; po,rapidly absorbed
same,rate of collagen-dependent platelet adhesion and thrombus formation,"human whole blood; erythritol (45 μM), physiological shear conditions",significant enhancement
OC[C@@H](O)[C@H](O)[C@@H](O)CO [xylitol],baseline plasma level,[1],0.5 to 1.0 µM
same,postprandial increase in urine,[1],Significant xylitol increases also were not observed
same,recovery in feces,[1],the majority of xylitol is recovered in feces
same,rate of collagen-dependent platelet adhesion and spreading,"human whole blood; xylitol, physiological shear flow",substantially accelerated

# Source: patent US20260219274A1, “POLYOL SWEETNERS AND CARDIOVASCULAR AND THROMBOTIC EVENT RISK” (THE CLEVELAND CLINIC FOUNDATION, priority 2023, published 2026)
